Assay results: PMC8212709 (Clinical and Translational Science, 2021)

Experiment: Phase I SRD/MRD safety and tolerability
Type: in vivo, human (healthy subjects)

For `C=CC(=O)N1CC[C@H](Oc2nc(-c3n[nH]c(=O)[nH]3)cc3ccccc23)C1` [TAK‐020], the Deaths (MRD 3.75 mg q.d. (n = 6)) was 0 n (%), the “Serious TEAEs” value (MRD 3.75 mg q.d. (n = 6)) was 0 n (%) and the “Serious TEAEs, Not related” value (MRD 3.75 mg q.d. (n = 6)) was 0 n (%). For the same molecule, the “Serious TEAEs, Related” value (MRD 3.75 mg q.d. (n = 6)) was 0 n (%), the TEAEs (MRD 3.75 mg q.d. (n = 6)) was 1 (16.7) n (%) and the “TEAEs Leading to DC” value (MRD 3.75 mg q.d. (n = 6)) was 0 n (%). For the same molecule, the “TEAEs, Mild” value (MRD 3.75 mg q.d. (n = 6)) was 1 (16.7) n (%), the “TEAEs, Moderate” value (MRD 3.75 mg q.d. (n = 6)) was 0 n (%) and the “TEAEs, Not related” value (MRD 3.75 mg q.d. (n = 6)) was 0 n (%). For the same molecule, the “TEAEs, Related” value (MRD 3.75 mg q.d. (n = 6)) was 1 (16.7) n (%), the “TEAEs, Severe” value (MRD 3.75 mg q.d. (n = 6)) was 0 n (%) and the Deaths (MRD 5.75 mg q.d. (n = 6)) was 0 n (%). For the same molecule, the “Serious TEAEs” value (MRD 5.75 mg q.d. (n = 6)) was 0 n (%), the “Serious TEAEs, Not related” value (MRD 5.75 mg q.d. (n = 6)) was 0 n (%) and the “Serious TEAEs, Related” value (MRD 5.75 mg q.d. (n = 6)) was 0 n (%). For the same molecule, the TEAEs (MRD 5.75 mg q.d. (n = 6)) was 3 (50.0) n (%), the “TEAEs Leading to DC” value (MRD 5.75 mg q.d. (n = 6)) was 0 n (%) and the “TEAEs, Mild” value (MRD 5.75 mg q.d. (n = 6)) was 3 (50.0) n (%). The “TEAEs, Moderate” value (MRD 5.75 mg q.d. (n = 6)) was 0 n (%), the “TEAEs, Not related” value (MRD 5.75 mg q.d. (n = 6)) was 1 (16.7) n (%) and the “TEAEs, Related” value (MRD 5.75 mg q.d. (n = 6)) was 2 (33.3) n (%). The “TEAEs, Severe” value (MRD 5.75 mg q.d. (n = 6)) was 0 n (%), the Deaths (MRD 13 mg q.d. (n = 6)) was 0 n (%) and the “Serious TEAEs” value (MRD 13 mg q.d. (n = 6)) was 0 n (%). The “Serious TEAEs, Not related” value (MRD 13 mg q.d. (n = 6)) was 0 n (%), the “Serious TEAEs, Related” value (MRD 13 mg q.d. (n = 6)) was 0 n (%) and the TEAEs (MRD 13 mg q.d. (n = 6)) was 3 (50.00) n (%). For the same molecule, the “TEAEs Leading to DC” value (MRD 13 mg q.d. (n = 6)) was 0 n (%), the “TEAEs, Mild” value (MRD 13 mg q.d. (n = 6)) was 3 (50.0) n (%) and the “TEAEs, Moderate” value (MRD 13 mg q.d. (n = 6)) was 0 n (%). The “TEAEs, Not related” value (MRD 13 mg q.d. (n = 6)) was 2 (33.3) n (%), the “TEAEs, Related” value (MRD 13 mg q.d. (n = 6)) was 1 (16.7) n (%) and the “TEAEs, Severe” value (MRD 13 mg q.d. (n = 6)) was 0 n (%). For the same molecule, the Deaths (MRD 25 mg q.d. (n = 6)) was 0 n (%), the “Serious TEAEs” value (MRD 25 mg q.d. (n = 6)) was 0 n (%) and the “Serious TEAEs, Not related” value (MRD 25 mg q.d. (n = 6)) was 0 n (%). For the same molecule, the “Serious TEAEs, Related” value (MRD 25 mg q.d. (n = 6)) was 0 n (%), the TEAEs (MRD 25 mg q.d. (n = 6)) was 2 (33.3) n (%) and the “TEAEs Leading to DC” value (MRD 25 mg q.d. (n = 6)) was 0 n (%). For the same molecule, the “TEAEs, Mild” value (MRD 25 mg q.d. (n = 6)) was 2 (33.3) n (%), the “TEAEs, Moderate” value (MRD 25 mg q.d. (n = 6)) was 0 n (%) and the “TEAEs, Not related” value (MRD 25 mg q.d. (n = 6)) was 2 (33.3) n (%). The “TEAEs, Related” value (MRD 25 mg q.d. (n = 6)) was 0 n (%), the “TEAEs, Severe” value (MRD 25 mg q.d. (n = 6)) was 0 n (%) and the Deaths (MRD 45 mg q.d. (n = 6)) was 0 n (%). For the same molecule, the “Serious TEAEs” value (MRD 45 mg q.d. (n = 6)) was 0 n (%), the “Serious TEAEs, Not related” value (MRD 45 mg q.d. (n = 6)) was 0 n (%) and the “Serious TEAEs, Related” value (MRD 45 mg q.d. (n = 6)) was 0 n (%). The TEAEs (MRD 45 mg q.d. (n = 6)) was 1 (16.7) n (%), the “TEAEs Leading to DC” value (MRD 45 mg q.d. (n = 6)) was 0 n (%) and the “TEAEs, Mild” value (MRD 45 mg q.d. (n = 6)) was 1 (16.7) n (%). The “TEAEs, Moderate” value (MRD 45 mg q.d. (n = 6)) was 0 n (%), the “TEAEs, Not related” value (MRD 45 mg q.d. (n = 6)) was 1 (16.7) n (%) and the “TEAEs, Related” value (MRD 45 mg q.d. (n = 6)) was 0 n (%). For the same molecule, the “TEAEs, Severe” value (MRD 45 mg q.d. (n = 6)) was 0 n (%), the Deaths (MRD 60 mg q.d. (n = 6)) was 0 n (%) and the “Serious TEAEs” value (MRD 60 mg q.d. (n = 6)) was 0 n (%). For the same molecule, the “Serious TEAEs, Not related” value (MRD 60 mg q.d. (n = 6)) was 0 n (%), the “Serious TEAEs, Related” value (MRD 60 mg q.d. (n = 6)) was 0 n (%) and the TEAEs (MRD 60 mg q.d. (n = 6)) was 1 (16.7) n (%). The “TEAEs Leading to DC” value (MRD 60 mg q.d. (n = 6)) was 0 n (%), the “TEAEs, Mild” value (MRD 60 mg q.d. (n = 6)) was 1 (16.7) n (%) and the “TEAEs, Moderate” value (MRD 60 mg q.d. (n = 6)) was 0 n (%). The “TEAEs, Not related” value (MRD 60 mg q.d. (n = 6)) was 1 (16.7) n (%), the “TEAEs, Related” value (MRD 60 mg q.d. (n = 6)) was 0 n (%) and the “TEAEs, Severe” value (MRD 60 mg q.d. (n = 6)) was 0 n (%). For the same molecule, the Deaths (MRD Overall TAK‐020 (N = 36)) was 0 n (%), the “Serious TEAEs” value (MRD Overall TAK‐020 (N = 36)) was 0 n (%) and the “Serious TEAEs, Not related” value (MRD Overall TAK‐020 (N = 36)) was 0 n (%). The “Serious TEAEs, Related” value (MRD Overall TAK‐020 (N = 36)) was 0 n (%), the TEAEs (MRD Overall TAK‐020 (N = 36)) was 11 (30.6) n (%) and the “TEAEs Leading to DC” value (MRD Overall TAK‐020 (N = 36)) was 0 n (%). For the same molecule, the “TEAEs, Mild” value (MRD Overall TAK‐020 (N = 36)) was 11 (30.6) n (%), the “TEAEs, Moderate” value (MRD Overall TAK‐020 (N = 36)) was 0 n (%) and the “TEAEs, Not related” value (MRD Overall TAK‐020 (N = 36)) was 7 (19.4) n (%). The “TEAEs, Related” value (MRD Overall TAK‐020 (N = 36)) was 4 (11.1) n (%), the “TEAEs, Severe” value (MRD Overall TAK‐020 (N = 36)) was 0 n (%) and the “percentage of subjects who had TEAEs” value (MRD, overall TAK‐020 group) was 30.6%. For the same molecule, the “subjects with study treatment‐related TEAEs” value (MRD, overall TAK‐020 group (four subjects)) was 11.1%, the Deaths (SRD Overall TAK‐020 (N = 54)) was 0 n (%) and the “Serious TEAEs” value (SRD Overall TAK‐020 (N = 54)) was 0 n (%). For the same molecule, the “Serious TEAEs, Not related” value (SRD Overall TAK‐020 (N = 54)) was 0 n (%), the “Serious TEAEs, Related” value (SRD Overall TAK‐020 (N = 54)) was 0 n (%) and the TEAEs (SRD Overall TAK‐020 (N = 54)) was 6 (11.1) n (%). The “TEAEs Leading to DC” value (SRD Overall TAK‐020 (N = 54)) was 0 n (%), the “TEAEs, Mild” value (SRD Overall TAK‐020 (N = 54)) was 6 (11.1) n (%) and the “TEAEs, Moderate” value (SRD Overall TAK‐020 (N = 54)) was 0 n (%). The “TEAEs, Not related” value (SRD Overall TAK‐020 (N = 54)) was 3 (5.6) n (%), the “TEAEs, Related” value (SRD Overall TAK‐020 (N = 54)) was 3 (5.6) n (%) and the “TEAEs, Severe” value (SRD Overall TAK‐020 (N = 54)) was 0 n (%). The “clinical laboratory test results (including liver function tests), vital sign findings, cytopenias, or ECG results reported as a TEAE” value (SRD and MRD parts) was “No subject”, the Deaths (SRD single dose 0.1 mg (n = 6)) was 0 n (%) and the “Serious TEAEs” value (SRD single dose 0.1 mg (n = 6)) was 0 n (%). The “Serious TEAEs, Not related” value (SRD single dose 0.1 mg (n = 6)) was 0 n (%) and the “Serious TEAEs, Related” value (SRD single dose 0.1 mg (n = 6)) was 0 n (%).
